Like-named read-outs stand apart in the source and are kept apart here.
Legend:
[1] = tested on: T. cruzi Y strain trypomastigote forms; test: Anti-T. cruzi activity against trypomastigote forms; format: cell-based; conditions: for EC50: read-out: Y strain T. cruzi EC50 Trypomastigote; for trypanosomicidal activity (parasite mortality): at 100 μmol·L^–1, trypomastigotes; for SI (selectivity index): mammalian cell CC50 versus trypomastigote EC50
Protocol: (§1) The T. cruzi Y strain was selected for this study due to its known partial sensitivity to benznidazole chemotherapy.
Trypomastigote forms of T. cruzi (2.5 × 10^5 parasites/well) were incubated in 96-well plates with serial dilutions of the hybrid compounds (100, 50, 25, and 12.5 μmol·L^–1) for 24 h at 37 °C in a humidified 5% CO2 atmosphere. Following incubation, parasite viability was assessed under an optical microscope by evaluating motility, and the number of live parasites was quantified using a Neubauer chamber. Untreated parasite cultures were maintained in parallel as negative controls. The mortality percentage was calculated by comparing the number of live parasites in treated wells to that of untreated controls. All experiments were conducted in triplicate with at least two technical replicates per concentration. EC50 values were determined by nonlinear regression using GraphPad Prism 8 and CompuSyn software (Biosoft, U.K.).

[2] = tested on: T. cruzi Y strain amastigote forms; test: Anti-T. cruzi activity against intracellular amastigote forms in infected Vero or H9c2 cells; format: cell-based, Trypanosoma cruzi; conditions: Vero or H9c2 cells infected with amastigote forms, 48 h of incubation, fixed concentration 50 μmol·L^–1
Protocol: as §1
Vero or H9c2 cells (7.5 × 10^3 cells/well) were seeded on sterile glass coverslips placed in 24-well plates and incubated for 24 h at 37 °C in 5% CO2 to allow cell adhesion. Following this period, cells were infected with trypomastigote forms of T. cruzi Y strain at a ratio of 20 parasites per cell. After 24 h of parasite-host interaction, noninternalized parasites were removed by washing with fresh medium, and the infected monolayers were incubated for 48 h with the hybrid compounds at a fixed concentration of 50 μmol·L^–1, following toxicity parameters. Infected but untreated cells were included as negative controls in all experiments. At the end of the treatment period, coverslips were washed with medium, fixed with methanol, and stained with Giemsa solution. After drying, the coverslips were mounted onto microscope slides using Entellan (Merck) and analyzed under a light microscope at 100× magnification. At least 200 cells were counted per coverslip, and only intracellular parasite forms with characteristic morphology were considered for analysis. The infection index was determined by the percentage of infected cells relative to the total number of cells analyzed. The inhibition percentage was calculated based on the reduction in infection in treated samples compared to the untreated control. Dose–response curves were constructed using GraphPad Prism 8 and CompuSyn (Biosoft, U.K.). All experiments were performed in triplicate, with at least two technical replicates per condition.

[3] = Cell viability assay (resazurin), Vero cells; format: cell-based; conditions: African green monkey, Vero cells; resazurin method; 48 h incubation; read-out: Cytotoxicity CC50 Vero
Protocol: (§2) Vero and H9c2 cells (2 × 10^3 cells/well) were seeded in 96-well plates in Dulbecco’s modified Eagle’s medium (DMEM) supplemented with 5% fetal bovine serum (FBS) and incubated for 24 h at 37 °C in a humidified atmosphere with 5% CO2. After incubation, the medium was replaced with fresh DMEM + 5% FBS containing serial dilutions of each hybrid compound (1400 to 175 μmol·L^–1). Cells were exposed to the compounds for 48 h. Four wells with untreated cells served as a positive control. Additionally, eight wells without cells were maintained as negative controls: four containing DMEM + 5% FBS + resazurin (1 mmol·L^–1), and four containing only DMEM + 5% FBS. After the 48-h incubation, the treatment medium was removed and replaced with DMEM + 5% FBS containing 10% resazurin solution (1 mmol·L^–1). Plates were incubated for an additional 6 h, and then absorbance was measured at 570 and 600 nm using a microplate reader. Dose–response curves were constructed using GraphPad Prism 8 software, and CC50 values were determined by nonlinear regression.

[4] = Cell viability assay (resazurin), H9c2 cells; format: cell-based; conditions: rat, resazurin method, 48 h incubation, read-out: Cytotoxicity CC50 H9c2
Protocol: as §2

[5] = tested on: Trypanosoma cruzi; conditions: cited from earlier work
[6] = tested on: Vero cells; test: Cell viability assay (resazurin), Vero cells; format: cell-based; conditions: 48 h; 1400 to 175 μmol·L^–1
Protocol: as §2

[7] = tested on: T. cruzi intracellular amastigote forms; conditions: in vitro; cited from earlier work
[8] = Trypanosoma cruzi, 24 h, 24 h of incubation, Y strain

| EC50 [1, 8] | EC50 ([2]; Trypanosoma cruzi) | Compound | CC50 at 48 h [3] | CC50 at 48 h [4] | also measured |
| --- | --- | --- | --- | --- | --- |
| > 100 µM | > 50 µM | COc1ccc(CC(O)Cn2ccnc2)cc1OC (racemic) [Compound 26, (±)-1-(3,4-Dimethoxyphenyl)-3-(1H-imidazol-1-yl)propan-2-ol] | > 1300 µM | > 1300 µM |  |
| > 100 µM | > 50 µM | COc1cc(CC(O)Cn2cncn2)cc([N+](=O)[O-])c1OC (racemic) [Compound 21, (±)-1-(3,4-Dimethoxy-5-nitrophenyl)-3-(1H-1,2,4-triazol-1-yl)propan-2-ol] | > 1300 µM | > 1300 µM |  |
| > 100 µM | > 50 µM | COc1cc(CC(O)Cn2ccnc2)cc([N+](=O)[O-])c1OC (racemic) [Compound 27, (±)-1-(3,4-Dimethoxy-5-nitrophenyl)-3-(1H-imidazol-1-yl)propan-2-ol] | > 1300 µM | > 1300 µM |  |
| 38.1 µM | > 50 µM | COc1cc(CC(O)Cn2ccnn2)cc([N+](=O)[O-])c1OCc1ccccc1 (racemic) [Compound 34, (±)-1-(4-(Benzyloxy)-3-methoxy-5-nitrophenyl)-3-(1H-1,2,3-triazol-1-yl)propan-2-ol] | > 1300 µM | > 1300 µM | SI (selectivity index) [1]: >34 |
| 21 µM |  | O=C(Cn1ccnc1[N+](=O)[O-])NCc1ccccc1 [Bz, benznidazole] |  |  | parasitological cure rates ([5]; acute or early congenital infections): 80–90%; treatment discontinuation due to adverse effects ([5]; dermatological, gastrointestinal and neurological symptoms): 10–20 % of patients |
| > 100 µM | > 50 µM | COc1ccc(CC(O)Cn2cncn2)cc1OC (racemic) [Compound 20, (±)-1-(3,4-Dimethoxyphenyl)-3-(1H-1,2,4-triazol-1-yl)propan-2-ol] | > 1400 µM | > 1300 µM | cytotoxicity toward Vero cells (in words) [6]: significantly higher cytotoxicity |
| > 100 µM | > 50 µM | COc1cc(CC(O)Cn2ccnn2)ccc1O (racemic) [Compound 30, (±)-4-(2-Hydroxy-3-(1H-1,2,3-triazol-1-yl)propyl)-2-methoxyphenol] | > 1300 µM | > 1300 µM |  |
| > 100 µM | > 50 µM | COc1cc(CC(O)Cn2ccnn2)cc([N+](=O)[O-])c1OC (racemic) [Compound 33, (±)-1-(3,4-Dimethoxy-5-nitrophenyl)-3-(1H-1,2,3-triazol-1-yl)propan-2-ol] | 1190 µM | > 1300 µM | cytotoxicity toward Vero cells (in words) [6]: significantly higher cytotoxicity |
| > 100 µM | > 50 µM | COc1cc(CC(O)Cn2ccnc2)ccc1OCc1ccccc1 (racemic) [Compound 28, (±)-1-(4-(Benzyloxy)-3-methoxyphenyl)-3-(1H-imidazol-1-yl)propan-2-ol] | > 1300 µM | > 1300 µM |  |
|  |  | CC[C@@H]([C@H](C)O)n1ncn(-c2ccc(N3CCN(c4ccc(OC[C@@H]5CO[C@@](Cn6cncn6)(c6ccc(F)cc6F)C5)cc4)CC3)cc2)c1=O [posaconazole] |  |  | inhibitory concentration against intracellular amastigotes (in words) [7]: subnanomolar concentrations |
| > 100 µM | > 50 µM | COc1ccc(CC(O)Cn2ccnn2)cc1OC (racemic) [Compound 32, (±)-1-(3,4-Dimethoxyphenyl)-3-(1H-1,2,3-triazol-1-yl)propan-2-ol] | > 1300 µM | > 1300 µM |  |
| > 100 µM | > 50 µM | COc1cc(CC(O)Cn2cncn2)ccc1O (racemic) [Compound 18, (±)-4-(2-Hydroxy-3-(1H-1,2,4-triazol-1-yl)propyl)-2-methoxyphenol] | > 1300 µM | > 1300 µM |  |
| > 100 µM | > 50 µM | COc1cc(CC(O)Cn2ccnc2)cc([N+](=O)[O-])c1O (racemic) [Compound 25, (±)-4-(2-Hydroxy-3-(1H-imidazol-1-yl)propyl)-2-methoxy-6-nitrophenol] | 860 µM | > 1300 µM | cytotoxicity toward Vero cells (in words) [6]: significantly higher cytotoxicity |
| > 100 µM | > 50 µM | COc1cc(CC(O)Cn2ccnc2)ccc1O (racemic) [Compound 24, (±)-4-(2-Hydroxy-3-(1H-imidazol-1-yl)propyl)-2-methoxyphenol] | > 1300 µM | > 1300 µM |  |
| > 100 µM | > 50 µM | COc1cc(CC(O)Cn2cncn2)cc([N+](=O)[O-])c1O (racemic) [Compound 19, (±)-4-(2-Hydroxy-3-(1H-1,2,4-triazol-1-yl)propyl)-2-methoxy-6-nitrophenol] | > 1300 µM | > 1300 µM |  |
|  |  | COc1cc(CC(O)Cn2ccnc2)cc([N+](=O)[O-])c1OCc1ccccc1 (single isomer, unassigned; (-)) [(-)-29] |  |  | EC50 ([1]; 24 h of incubation, Y strain, listed as (−)-29): ~29 µM; EC50 ([1]; 24 h of incubation, Y strain): 29.9 µM; trypanosomicidal activity (parasite mortality) ([1]; 24 h): approximately 99%; EC50 [2]: > 50 µM |
|  |  | C[C@@H](c1nc(-c2ccc(C#N)cc2)cs1)[C@](O)(Cn1cncn1)c1ccc(F)cc1F [ravuconazole] |  |  | inhibitory concentration against intracellular amastigotes (in words) [7]: subnanomolar concentrations |
| > 100 µM | > 50 µM | COc1cc(CC(O)Cn2cncn2)ccc1OCc1ccccc1 (racemic) [Compound 22, (±)-1-(4-(Benzyloxy)-3-methoxyphenyl)-3-(1H-1,2,4-triazol-1-yl)propan-2-ol] | > 1300 µM | > 1300 µM |  |
| > 100 µM | > 50 µM | COc1cc(CC(O)Cn2cncn2)cc([N+](=O)[O-])c1OCc1ccccc1 (racemic) [Compound 23, (±)-1-(4-(Benzyloxy)-3-methoxy-5-nitrophenyl)-3-(1H-1,2,4-triazol-1-yl)propan-2-ol] | > 1300 µM | > 1300 µM | activity against trypomastigote forms (in words) ([1]; Y strain, up to 100 μmol·L^–1): inactive |
|  |  | C=CCc1ccc(O)c(OC)c1 [Eug, eugenol] |  |  | EC50 ([1]; Trypanosoma cruzi, 24 h): 500 µM |
| > 100 µM | > 50 µM | COc1cc(CC(O)Cn2ccnn2)cc([N+](=O)[O-])c1O (racemic) [Compound 31, (±)-4-(2-Hydroxy-3-(1H-1,2,3-triazol-1-yl)propyl)-2-methoxy-6-nitrophenol] | > 1300 µM | > 1300 µM |  |

| Compound | EC50 [1, 8] | EC50 ([2]; Trypanosoma cruzi) | CC50 at 48 h [3] | CC50 at 48 h [4] | also measured |
| --- | --- | --- | --- | --- | --- |
| COc1cc(CC(O)Cn2ccnc2)cc([N+](=O)[O-])c1OCc1ccccc1 (single isomer, unassigned; (+)) [(+)-29] | ~29 µM |  |  |  | EC50 ([1]; 24 h of incubation, Y strain): 28.8 µM; mortality at 100 µM ([1]; Trypanosoma cruzi, 24 h, read-out: trypanosomicidal activity (parasite mortality)): ~99%; EC50 [2]: > 50 µM |
| COc1cc(CC(O)Cn2ccnc2)cc([N+](=O)[O-])c1OCc1ccccc1 (racemic) [Compound 29, (±)-1-(4-(Benzyloxy)-3-methoxy-5-nitrophenyl)-3-(1H-imidazol-1-yl)propan-2-ol] |  | > 50 µM | > 1300 µM | > 1300 µM | EC50 ([1]; 24 h of incubation, Y strain): 26.5 µM; trypanosomicidal activity (parasite mortality) ([1]; 24 h): approximately 99%; SI (selectivity index) [1]: >49 |
